Results from PubChem BioAssay AID1645871.

Details: pampa; pH 5.0; 30.0 min; 50.0 µM

| SMILES | Papp [×10⁻⁶ cm/s] |
| --- | --- |
| NC(=O)c1ccc(-c2ncc3cnc(-c4cccc(F)c4)cn23)cc1 | 135 |
| COc1cc2ncnc(Oc3cccc(NC(=O)Nc4cc(C(C)(C)C(F)(F)F)on4)c3)c2cc1OC | 137 |
| CCCCOc1ccc(C(=O)N2CCC(c3n[nH]c(=O)n3-c3ccc(C)cc3)CC2)cc1 | > 1000 |
| Cc1ccccc1N(C)C1CN([S+](=O)([O-])c2cccc(C(F)(F)F)c2)C1 | 924 |
| CCOc1ccc(OCC)c(NC(=O)C(NS(=O)(=O)c2ccc(Br)s2)c2ccccc2)c1 (configuration not stated) | 637 |
| Cn1c(=O)c2c(-c3ccc(Br)cc3)n(CCc3ccccc3)cc2n(C)c1=O | 591 |
| Cc1nc([C@](C)(O)CO)sc1-c1cnc(N)c(O[C@H](C)c2cc(F)ccc2-n2nccn2)c1 | 322 |
| CCc1nnc(NC(=O)c2nc(S(=O)(=O)Cc3ccc(C)cc3)ncc2Cl)s1 | 711 |
| CN1CCCN(C(c2ccccc2)c2ccc(Cl)cc2)CC1 (configuration not stated) | > 1000 |
| Cc1cccc(-n2ncc3c2CCCC3NC(=O)c2c(F)ccc(F)c2F)c1C (configuration not stated) | 552 |
| CCc1cccc(NC(=O)C(Cc2ccccc2)NS(=O)(=O)c2cccs2)c1 (configuration not stated) | > 1000 |
| O=c1[nH]c(N2CCOCC2)nc2c1CCN(Cc1cc(Cl)ccc1F)CC2 | 46.3 |
| O=C(O)c1ccc(Nc2nc(-c3cc4ccccc4oc3=O)cs2)cc1O | 74.2 |
| Cc1ccc(NC(=O)NCC2CCN(Cc3cccc(Cl)c3)CC2)cc1Cl | > 1000 |
| CCC1=Nc2cc(C(=O)NCCCOC)ccc2Sc2ccc(Br)cc21 | > 1000 |
| COc1cc(C(=O)NC2CCCc3c2[nH]c2c(Cl)cccc32)cc(OC)c1OC (configuration not stated) | 384 |
| CC(C)Oc1ccc(CNC(=O)C2CCN(C(=O)N3CCOc4ccc(Cl)cc43)CC2)cc1 | 860 |
| O=C(O)Cc1ccc2oc(-c3ccc(NC(=O)/C=C/c4ccc(Br)cc4)c(F)c3)nc2c1 | 405 |
| COc1ccc(C2c3c(oc4ccc(C)cc4c3=O)C(=O)N2CCCN2CCOCC2)cc1OC (configuration not stated) | 19.2 |
| Clc1ccc(C2(c3ccc(-c4cn[nH]c4)cc3)CCNCC2)cc1 | 3.6 |
| CN1CCC(N(Cc2cccs2)c2ccccc2)CC1 | 254 |
| CC1=C(C(=O)Nc2nc3ccccc3s2)C(c2[nH]ncc2Cl)N=C(Nc2nc3ccccc3o2)N1 (configuration not stated) | 15.6 |
| COc1cc2c(cc1Oc1cccc(N(C)C)c1)NC(=O)C21CCN(c2cnccn2)CC1 | > 1000 |
| O=C(C1CC(=O)N(c2n[nH]c3ccccc23)C1)N1CCC(c2noc3cc(F)ccc23)CC1 (configuration not stated) | 635 |
| CN(C(=O)CSc1nc2ccc(NC(=O)c3ccc(F)cc3)cc2s1)c1ccccc1 | 901 |
| CN(C)C(=O)NC1CCC(CCN2CCN(c3cccc(Cl)c3Cl)CC2)CC1 (configuration not stated) | 350 |

| SMILES | Papp [×10⁻⁶ cm/s] |
| --- | --- |
| CCOC(=O)C1CCN(c2ncc(-c3ccc4c(c3)OCCCO4)s2)CC1 | > 1000 |
| O=C(c1cc2ccccc2[nH]1)N1CCc2c(n(Cc3cccnc3)n(CCc3ccccc3)c2=O)C1 | 229 |
| O=S(=O)(c1ccccc1)c1nc(-c2ccc(F)cc2)oc1N1CCCCCC1 | > 1000 |
| COc1ccc(C(=O)NC2CCCc3c2[nH]c2ccccc32)cc1OC (configuration not stated) | 238 |
| COc1cc(NC(=O)c2cc(-c3ccccc3O)no2)cc(OC)c1OC | > 1000 |
| CCCCNC(=O)CN1CCN(c2ncc(NC(=O)c3ccc(Cl)cc3)cc2C(=O)O)CC1 | 1.92 |
| Cc1cnc(SCc2ccccn2)nc1C1CCCN(C(=O)c2scc3c2CCCC3)C1 (configuration not stated) | > 1000 |
| O=C(Nc1ccc(Oc2ccnc3[nH]ccc23)c(F)c1)c1cccn(-c2ccc(F)cc2)c1=O | 9.36 |
| COc1cc(C2c3c(oc4cc(C)c(C)cc4c3=O)C(=O)N2CCCN2CCOCC2)ccc1O (configuration not stated) | 25.3 |
| CCCN1C(CC(C)C)=NS(=O)(=O)c2cc(NC(=O)c3cccs3)ccc21 | 275 |
| COC(=O)c1cc2occc2n1Cc1nc(-c2ccc(C)cc2)oc1C | 257 |
| CCC(=O)NC(c1ccc(OC)cc1)c1cc(Cl)c2cccnc2c1O (configuration not stated) | 5.75 |
| O=C1CCc2cc(S(=O)(=O)Nc3ccc(F)c(Cl)c3)ccc2N1 | 663 |
| c1cc(-c2cc(-c3ccncc3)c3cncn3c2)c2[nH]ncc2c1 | 20.3 |
| C[C@H]1CN(C(=O)c2nn(C)c3ccccc23)C[C@@H]1c1nc(-c2ccncc2)no1 | 667 |
| COC(=O)c1ccc(O)c2ncc(N3CCN(C)CC3)cc12 | 80.1 |
| COc1cc2c(c(OC)c1OC)-c1ccc(SC)c(=O)cc1C(N)CC2 (configuration not stated) | 55 |
| COc1ccccc1CN1CCNc2cc(Nc3ccccc3)ncc2C1 | 22.3 |
| COc1cccc(C(=O)Nc2nc(-c3nnn(-c4ccccc4C(F)(F)F)c3C)ns2)c1 | 834 |
| Nc1nc2c(s1)C(c1ccc(F)cc1F)CC(=O)N2 (configuration not stated) | 5 |
| O=C1Nc2cc(Cl)ccc2Nc2cscc21 | 63.3 |
| CCOc1cc(=O)n2c(c1C(=O)Nc1cc(OC)c(Cl)cc1OC)CCCC2 | 68.7 |
| CC(C)Oc1ccc(C(=O)Nc2ccc3c(c2)CCCN3C(=O)c2cccs2)cc1 | 800 |
| NC(=O)C1CCN(c2nccc(-c3ccc4c(c3)OCCO4)n2)CC1 | 191 |
| CCN(CCN(C)C)C(=O)C1CCN(S(=O)(=O)c2c(C)noc2/C=C/c2ccccc2F)CC1 | 565 |
| CCCCc1ccc(NC(=O)c2ccc3c(c2)N(S(C)(=O)=O)CC3)cc1 | 385 |
